Source: the NIST ThermoML archive (doi:10.1016/j.tca.2015.05.002)
± gives the expanded uncertainty stated by the source.

Assays:
[1] = Molar enthalpy of transition or fusion; conditions: DSC
[2] = DTA

Row | SMILES | Molar enthalpy of transition or fusion ([1]; Crystal 1) [kcal/mol] | Molar enthalpy of transition or fusion ([1]; Crystal 2) [kcal/mol] | Molar enthalpy of transition or fusion ([1]; Smectic liquid crystal) [kcal/mol] | Triple point temperature ([2]; Crystal 1) [K] | Triple point temperature ([2]; Crystal 2) [K] | Triple point temperature ([2]; Smectic liquid crystal) [K]
1 | CCCCCC(=O)[O-].CCCCCC(=O)[O-].CCCCCC(=O)[O-].[La+3] [lanthanum(III) hexanoate] | 1.1 ± 0.129 | 1.49 ± 0.134 | 0.32 ± 0.124 | 406.85 ± 10 | 380.45 ± 10 | 459.05 ± 0.5
2 | CCCCC(=O)[O-].CCCCC(=O)[O-].CCCCC(=O)[O-].[La+3] [lanthanum(III) pentanoate] | 1.69 ± 0.136 |  | 0.717 ± 0.127 | 410.95 ± 10 | 366.15 ± 10 | 451.65 ± 10
